Reference: paper PMC10712727, “Safety, Tolerability, and Pharmacokinetics of Senaparib, a Novel PARP1/2 Inhibitor, in Chinese Patients With Advanced Solid Tumors: A Phase I Trial” (The Oncologist, 2023)

Test system: patients with advanced solid tumors
Experiment: Safety: treatment-emergent and senaparib-related adverse events graded per NCI CTCAE v4.03
Assay type: in vivo
Experimental: This phase I, open-label, multicenter, dose-escalation, and dose-expansion study was conducted at three national clinical institutions in China. […] At baseline, all patients enrolled in the dose-escalation phase had to have at least one evaluable lesion, and those in the dose-expansion period had to have at least one measurable lesion, according to Response Evaluation Criteria in Solid Tumors version 1.1 (RECIST v1.1).[16] Entry to the dose-expansion cohort required the presence of a BRCA mutation, with the exception of patients with ovarian carcinoma, fallopian tube carcinoma, and primary peritoneal carcinoma. Full study eligibility criteria are provided in Supplementary Table S1.
Dose escalation was conducted using a modified Fibonacci 3 + 3 method (Supplementary Fig. S1).[17] Patients were administered oral senaparib from a planned starting dose of 2 mg once daily (QD), with preliminary dose escalation to 120 mg via nine dose groups, in order of their entry into the study. At a given dose level, each patient received a single dose of senaparib followed by a 7-day washout period. They then entered a continuous dosing period to confirm the safety and PK profile, in which they received senaparib QD from day 1 to day 21 of each 3-week cycle. Progression to the next higher dose required approval from the Data Safety Monitoring Committee (DSMC) upon review of the safety and PK data of the previous dose. A 50-mg twice-daily (BID) dosing group was added (planned enrollment, n = 6 patients) based on a DSMC review of the safety, PK, and efficacy analysis of the completed QD dose groups in the phase I clinical trial of senaparib dose escalation in Australia (NCT03507543), which commenced prior to the start of this trial.
The dose-expansion period included 3 populations: dose groups in which at least one patient achieved complete response (CR) or partial response (PR) per RECIST v1.1[16] and 1 dose group higher (evaluated for safety), as well as the dose group at the maximum tolerated dose (MTD)/recommended phase II dose (RP2D). Each of these groups included those patients in the respective dose-escalation group plus a planned additional 10 patients (approximately 20 patients in the MTD/RP2D group) with BRCA^mut+ solid tumors (ovarian, breast, or prostate cancer were preferred, and ovarian cancer could be BRCA wild type). Patients received senaparib monotherapy orally QD or BID (50-mg dose only) over each 3-week cycle until disease progression or unacceptable toxicity.
DLTs were predefined toxicities (Supplementary Table S2) recorded over the 7 days following the single-dose administration of senaparib and during the first treatment cycle (day 1-day 21) for each dose group in the dose-escalation period only. The MTD was defined as the maximum dose at which ≤1/6 patients experienced a DLT. Senaparib PK parameters were derived from blood samples collected from patients after the single administration, and at regular intervals during the first cycle of the dose-escalation and dose-expansion periods. Plasma concentrations of senaparib were determined using high-performance liquid chromatography-tandem mass spectrometry. Tumor response was assessed every 6 weeks per RECIST v1.1,[16] recording objective response rate (ORR), disease control rate (DCR), duration of response (DOR), and progression-free survival (PFS) by dose level for all patients and for those harboring BRCA^mut+ tumors.

O=C(c1cc(Cn2c(=O)[nH]c(=O)c3c(F)cccc32)ccc1F)N1CCN(c2ncccn2)CC1 [Senaparib]
TRAEs Grade ≥3, events (40 mg QD n = 3): 0 n ev
TRAEs Grade ≥3, patients (40 mg QD n = 3): 0 n (%)
TRAEs, events (40 mg QD n = 3): 6 n ev
TRAEs, patients (40 mg QD n = 3): 3 (100) n (%)
Vomiting TRAE, All (40 mg QD n = 3): 0 n (%)
Vomiting TRAE, Gr≥3 (40 mg QD n = 3): 0 n (%)
WBC decreased TRAE, All (40 mg QD n = 3): 0 n (%)
WBC decreased TRAE, Gr≥3 (40 mg QD n = 3): 0 n (%)
ALT increased TRAE, All (50 mg BID n = 4): 1 (25.0) n (%)
ALT increased TRAE, Gr≥3 (50 mg BID n = 4): 0 n (%)
AST increased TRAE, All (50 mg BID n = 4): 1 (25.0) n (%)
AST increased TRAE, Gr≥3 (50 mg BID n = 4): 0 n (%)
Anemia TRAE, All (50 mg BID n = 4): 3 (75.0) n (%)
Anemia TRAE, Gr≥3 (50 mg BID n = 4): 2 (50.0) n (%)
Any TEAE, All (50 mg BID n = 4): 4 (100) n (%)
Any TEAE, Gr≥3 (50 mg BID n = 4): 3 (75.0) n (%)
Any TEAE, events (50 mg BID n = 4): 32 n ev
Any TEAE, patients (50 mg BID n = 4): 4 (100) n (%)
Any TRAE, All (50 mg BID n = 4): 4 (100) n (%)
Any TRAE, Gr≥3 (50 mg BID n = 4): 2 (50.0) n (%)
Appetite decreased TRAE, All (50 mg BID n = 4): 0 n (%)
Appetite decreased TRAE, Gr≥3 (50 mg BID n = 4): 0 n (%)
Asthenia TRAE, All (50 mg BID n = 4): 1 (25.0) n (%)
Asthenia TRAE, Gr≥3 (50 mg BID n = 4): 0 n (%)
Blood bilirubin increased TRAE, All (50 mg BID n = 4): 0 n (%)
Blood bilirubin increased TRAE, Gr≥3 (50 mg BID n = 4): 0 n (%)
Blood creatinine increased TRAE, All (50 mg BID n = 4): 0 n (%)
Blood creatinine increased TRAE, Gr≥3 (50 mg BID n = 4): 0 n (%)
Hypokalemia TRAE, All (50 mg BID n = 4): 0 n (%)
Hypokalemia TRAE, Gr≥3 (50 mg BID n = 4): 0 n (%)
Nausea TRAE, All (50 mg BID n = 4): 2 (50.0) n (%)
Nausea TRAE, Gr≥3 (50 mg BID n = 4): 0 n (%)
Neutrophil count decreased TRAE, All (50 mg BID n = 4): 0 n (%)
Neutrophil count decreased TRAE, Gr≥3 (50 mg BID n = 4): 0 n (%)
Platelet count decreased TRAE, All (50 mg BID n = 4): 1 (25.0) n (%)
Platelet count decreased TRAE, Gr≥3 (50 mg BID n = 4): 0 n (%)
SAEs, events (50 mg BID n = 4): 1 n ev
SAEs, patients (50 mg BID n = 4): 1 (25.0) n (%)
TEAE Grade ≥3, events (50 mg BID n = 4): 3 n ev
TEAE Grade ≥3, patients (50 mg BID n = 4): 3 (75.0) n (%)
TEAEs leading to death, events (50 mg BID n = 4): 0 n ev
TEAEs leading to death, patients (50 mg BID n = 4): 0 n (%)
TEAEs leading to dose discontinuation, events (50 mg BID n = 4): 0 n ev
TEAEs leading to dose discontinuation, patients (50 mg BID n = 4): 0 n (%)
TEAEs leading to dose interruption, events (50 mg BID n = 4): 1 n ev
TEAEs leading to dose interruption, patients (50 mg BID n = 4): 1 (25.0) n (%)
TEAEs leading to dose reduction, events (50 mg BID n = 4): 1 n ev
TEAEs leading to dose reduction, patients (50 mg BID n = 4): 1 (25.0) n (%)
TRAEs Grade ≥3, events (50 mg BID n = 4): 2 n ev
TRAEs Grade ≥3, patients (50 mg BID n = 4): 2 (50.0) n (%)
TRAEs, events (50 mg BID n = 4): 26 n ev
TRAEs, patients (50 mg BID n = 4): 4 (100) n (%)
Vomiting TRAE, All (50 mg BID n = 4): 2 (50.0) n (%)
Vomiting TRAE, Gr≥3 (50 mg BID n = 4): 0 n (%)
WBC decreased TRAE, All (50 mg BID n = 4): 2 (50.0) n (%)
WBC decreased TRAE, Gr≥3 (50 mg BID n = 4): 0 n (%)
ALT increased TRAE, All (60 mg QD n = 5): 0 n (%)
ALT increased TRAE, Gr≥3 (60 mg QD n = 5): 0 n (%)
